Legend:
Assay in all cases: relative viability (nuclei count vs DMSO), 5 days (fraction); higher = more cells survive
[1] = test system: NCI-H2228
Procedure, shortened: (§1)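 Nuclei were stained with Hoechst during a one-step fixation (final 0.05% Triton X-100, 1% formaldehyde, 1 ug/ml Hoechst) carried out 5 days after dosing, then counted on 4× images. The cells, lung cancer lines in 1536-well plates, had been dosed by pin tool the day after seeding with one drug alone or a fixed anchor-drug dose plus five library-drug doses (not always all listed) in √10 steps. Relative viability is the nuclei count in treated wells divided by that in vehicle wells, and each value is the median of duplicate plates.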

[2] = test system: ABC-1
Procedure, shortened: as §1

[3] = test system: COR-L23
Procedure, shortened: as §1

[4] = test system: NCI-H1793
Procedure, shortened: as §1

[5] = test system: EMC-BAC-2
Procedure, shortened: as §1

[6] = test system: NCI-H2023
Procedure, shortened: as §1

[7] = test system: HCC-15
Procedure, shortened: as §1

[8] = test system: NCI-H2405
Procedure, shortened: as §1

[9] = test system: HCC-78
Procedure, shortened: as §1

[10] = test system: LC-2-ad
Procedure, shortened: as §1

[11] = test system: NCI-H2126
Procedure, shortened: as §1

[12] = test system: HCC-366
Procedure, shortened: as §1

[13] = test system: NCI-H1993
Procedure, shortened: as §1

[14] = test system: NCI-H1944
Procedure, shortened: as §1

[15] = test system: HOP-62
Procedure, shortened: as §1

[16] = test system: ChaGo-K-1
Procedure, shortened: as §1

[17] = test system: SK-LU-1
Procedure, shortened: as §1

[18] = test system: NCI-H23
Procedure, shortened: as §1

[19] = test system: NCI-H838
Procedure, shortened: as §1

[20] = test system: NCI-H358
Procedure, shortened: as §1

[21] = test system: NCI-H1395
Procedure, shortened: as §1

[22] = test system: HARA
Procedure, shortened: as §1

SMILES: Nc1ccn([C@@H]2O[C@H](CO)[C@@H](O)[C@@H]2O)c(=O)n1 [Cytarabine] + COc1cccc2cc(-c3nc([C@H]4CC[C@H](C(=O)O)CC4)n4ncnc(N)c34)[nH]c12 [OSI-027] (partner 0.5 µM)
- relative viability ([1]; first compound 0.005 µM): 0.404
- relative viability ([1]; first compound 0.01581 µM): 0.209
- relative viability ([1]; first compound 0.05 µM): 0.244
- relative viability ([1]; first compound 0.1581 µM): 0.097
- relative viability ([1]; first compound 0.5 µM): 0.0984
- relative viability ([2]; first compound 0.005 µM): 0.41
- relative viability ([2]; first compound 0.01581 µM): 0.458
- relative viability ([2]; first compound 0.05 µM): 0.463
- relative viability ([2]; first compound 0.1581 µM): 0.379
- relative viability ([2]; first compound 0.5 µM): 0.259
- relative viability ([3]; first compound 0.005 µM): 0.396
- relative viability ([3]; first compound 0.01581 µM): 0.546
- relative viability ([3]; first compound 0.05 µM): 0.546
- relative viability ([3]; first compound 0.1581 µM): 0.16
- relative viability ([3]; first compound 0.5 µM): 0.116
- relative viability ([4]; first compound 0.005 µM): 0.296
- relative viability ([4]; first compound 0.01581 µM): 0.285
- relative viability ([4]; first compound 0.05 µM): 0.245
- relative viability ([4]; first compound 0.1581 µM): 0.198
- relative viability ([4]; first compound 0.5 µM): 0.197
- relative viability ([5]; first compound 0.005 µM): 0.413
- relative viability ([5]; first compound 0.01581 µM): 0.353
- relative viability ([5]; first compound 0.05 µM): 0.312
- relative viability ([5]; first compound 0.1581 µM): 0.27
- relative viability ([5]; first compound 0.5 µM): 0.22
- relative viability ([6]; first compound 0.005 µM): 0.212
- relative viability ([6]; first compound 0.01581 µM): 0.152
- relative viability ([6]; first compound 0.05 µM): 0.107
- relative viability ([6]; first compound 0.1581 µM): 0.104
- relative viability ([6]; first compound 0.5 µM): 0.102
- relative viability ([7]; first compound 0.005 µM): 0.597
- relative viability ([7]; first compound 0.01581 µM): 0.67
- relative viability ([7]; first compound 0.05 µM): 0.669
- relative viability ([7]; first compound 0.1581 µM): 0.56
- relative viability ([7]; first compound 0.5 µM): 0.412
- relative viability ([8]; first compound 0.005 µM): 0.62
- relative viability ([8]; first compound 0.01581 µM): 0.558
- relative viability ([8]; first compound 0.05 µM): 0.434
- relative viability ([8]; first compound 0.1581 µM): 0.394
- relative viability ([8]; first compound 0.5 µM): 0.325
- relative viability ([9]; first compound 0.005 µM): 0.368
- relative viability ([9]; first compound 0.01581 µM): 0.349
- relative viability ([9]; first compound 0.05 µM): 0.314
- relative viability ([9]; first compound 0.1581 µM): 0.242
- relative viability ([9]; first compound 0.5 µM): 0.258
- relative viability ([10]; first compound 0.005 µM): 0.734
- relative viability ([10]; first compound 0.01581 µM): 0.69
- relative viability ([10]; first compound 0.05 µM): 0.539
- relative viability ([10]; first compound 0.1581 µM): 0.344
- relative viability ([10]; first compound 0.5 µM): 0.318
- relative viability ([11]; first compound 0.005 µM): 0.62
- relative viability ([11]; first compound 0.01581 µM): 0.626
- relative viability ([11]; first compound 0.05 µM): 0.544
- relative viability ([11]; first compound 0.1581 µM): 0.533
- relative viability ([11]; first compound 0.5 µM): 0.45
- relative viability ([12]; first compound 0.005 µM): 0.823
- relative viability ([12]; first compound 0.01581 µM): 0.61
- relative viability ([12]; first compound 0.05 µM): 0.558
- relative viability ([12]; first compound 0.1581 µM): 0.213
- relative viability ([12]; first compound 0.5 µM): 0.06
- relative viability ([13]; first compound 0.005 µM): 0.599
- relative viability ([13]; first compound 0.01581 µM): 0.56
- relative viability ([13]; first compound 0.05 µM): 0.529
- relative viability ([13]; first compound 0.1581 µM): 0.484
- relative viability ([13]; first compound 0.5 µM): 0.498
- relative viability ([14]; first compound 0.005 µM): 0.313
- relative viability ([14]; first compound 0.01581 µM): 0.239
- relative viability ([14]; first compound 0.05 µM): 0.214
- relative viability ([14]; first compound 0.1581 µM): 0.155
- relative viability ([14]; first compound 0.5 µM): 0.133
- relative viability ([15]; first compound 0.005 µM): 0.554
- relative viability ([15]; first compound 0.01581 µM): 0.474
- relative viability ([15]; first compound 0.05 µM): 0.458
- relative viability ([15]; first compound 0.1581 µM): 0.141
- relative viability ([15]; first compound 0.5 µM): 0.12
- relative viability ([16]; first compound 0.005 µM): 0.465
- relative viability ([16]; first compound 0.01581 µM): 0.353
- relative viability ([16]; first compound 0.05 µM): 0.247
- relative viability ([16]; first compound 0.1581 µM): 0.165
- relative viability ([16]; first compound 0.5 µM): 0.212
- relative viability ([17]; first compound 0.005 µM): 0.275
- relative viability ([17]; first compound 0.01581 µM): 0.294
- relative viability ([17]; first compound 0.05 µM): 0.297
- relative viability ([17]; first compound 0.1581 µM): 0.193
- relative viability ([17]; first compound 0.5 µM): 0.199
- relative viability ([18]; first compound 0.005 µM): 0.582
- relative viability ([18]; first compound 0.01581 µM): 0.502
- relative viability ([18]; first compound 0.05 µM): 0.507
- relative viability ([18]; first compound 0.1581 µM): 0.272
- relative viability ([18]; first compound 0.5 µM): 0.161
- relative viability ([19]; first compound 0.005 µM): 0.397
- relative viability ([19]; first compound 0.01581 µM): 0.379
- relative viability ([19]; first compound 0.05 µM): 0.4
- relative viability ([19]; first compound 0.1581 µM): 0.273
- relative viability ([19]; first compound 0.5 µM): 0.185
- relative viability ([20]; first compound 0.005 µM): 0.608
- relative viability ([20]; first compound 0.01581 µM): 0.631
- relative viability ([20]; first compound 0.05 µM): 0.35
- relative viability ([20]; first compound 0.1581 µM): 0.104
- relative viability ([20]; first compound 0.5 µM): 0.091
- relative viability ([21]; first compound 0.005 µM): 0.592
- relative viability ([21]; first compound 0.01581 µM): 0.484
- relative viability ([21]; first compound 0.05 µM): 0.369
- relative viability ([21]; first compound 0.1581 µM): 0.349
- relative viability ([21]; first compound 0.5 µM): 0.328
- relative viability ([22]; first compound 0.005 µM): 0.438
- relative viability ([22]; first compound 0.01581 µM): 0.236
- relative viability ([22]; first compound 0.05 µM): 0.149
- relative viability ([22]; first compound 0.1581 µM): 0.107
- relative viability ([22]; first compound 0.5 µM): 0.101

— the supplement of paper PMC10307832
